Values after ≈ are worked out from the molar mass of the structure shown.
Key:
[1] = tested on: Escherichia coli ATC-25922; experiment: MIC, broth microdilution; format: cell-based; conditions: ATC25922
Source text: As used herein, the term “MIC” refers to minimum inhibitory concentrations. Minimum inhibitory concentrations may be determined by broth microdilution according to the Clinical and Laboratory Standards Institute guidelines (see, e.g., […]-A8. Methods for dilution antimicrobial susceptibility tests for bacteria that grow aerobically: approved standard, 8th Ed.; […] One example for measuring minimum inhibitory concentrations may be found in Reck et al., 2012, J. Med. Chem. 55:6916-6933, the disclosure of which is incorporated by reference. Inoculants may be incubated on blood agar plates for 18 to 24 hours. Incubation may occur at a temperature from about 35° C. to about 37° C. […] In serum supplemented experiments, the testing medium (e.g., DMSO solution) and human serum may be mixed. The ratio of testing medium to human serum may be 1:1 (vol:vol). Plates may be read by spectrophotometry at 620 nm. Unless indicated otherwise, all inhibitory concentrations recited in the specification relate to MICs. The MIC tests were based on broth microdilution method in CLSI-M7. […] Solutions of varying concentrations of DMSO were prepared in wells of a v-bottom 96-well plate (Axygen-WIPP02280). A multi-pipette was used to perform serial dilutions as necessary. From well to well, the drug concentrations were 6.4, 3.2, 1.6, 0.8, 0.4, 0.2, 0.1, 0.05, 0.025, 0.0125, 0.00625 and 0 mg/ml in DMSO. For extremely potent antibiotic, the starting concentrations were adjusted accordingly. This was the drug mother plate. Daughter plates were prepared by placing 98 μl of a testing medium into each well of a u-bottom 96-well plate (Costar 3788). An aliquot of each 2 μl solution from each well of the mother plate was then transferred into the corresponding wells of the daughter plate using a multi-pipette work station (CyBi®-SELMA). Testing media were selected based on CLSI-M7, M11 and […]. Cation adjusted Mueller Hinton Broth (CA-MHB-212322) was the testing medium for majority of bacterial species. […] The MIC values were determined and based on the standards of CLSI methods M7-A7, broth microdilution method. […]

[2] = Microsomal stability assay, human CLint; format: in vitro ADME; set-up: unit not given here; conditions: human liver microsomes, 1 μM, 0.5 mg/ml microsomal protein
Experimental: (§1) The activity profiles of compounds 17, 23, and 24 were assessed by various in vitro measurements. The minimum inhibitory concentration (MIC), MIC in the presence of normal human serum (NHS), microsome CLint, the % of free compounds following a plasma protein biding (PPB) assay, and the concentration of drug where the human-ether-à-go-go-related gene (hERG gene) channel block is halved (IC50(hERG)) were measured using standard in vitro protocols for compounds 17, 23, and 24. Unless otherwise indicated, measurements (e.g., microsomal clearance) were performed using a standard microsomal stability assay using LC/MS/MS techniques.
(§2) Test compounds were incubated at 37° C. with liver microsomes pooled from multiple donors at 1 μM in the presence of a NADPH regenerating system at 0.5 mg/ml microsomal protein. Positive of testosterone (a 3A4 substrate), propafenone (a 2D6 substrate), and diclofenac (a 2c9 substrate) were similarly incubated with microsomes in the presence of a NADPH regenerating system. Samples are removed at 0, 5, 10, 20, 30, and 60 minutes of incubation and immediately mixed with cold acetonitrile containing an internal standard (IS). Samples are then analyzed by LC/MS/MS to determine the disappearance of the test compound and are assessed based on the peak area ratios of analyte/IS (no standard curve).

[3] = Microsomal stability assay, mouse CLint; format: in vitro ADME; set-up: unit not given here; conditions: mouse liver microsomes, 1 μM, 0.5 mg/ml microsomal protein
Experimental: as §1, §2

[4] = tested on: Klebsiella pneumonia ATCC-700603; experiment: MIC (50% NHS); format: cell-based; conditions: Klebsiella pneumoniae, ATCC700603; Klebsiella pneumonia ATCC-700603, 50% NHS
[5] = tested on: Escherichia coli NCTC-13476; experiment: MIC (50% NHS); format: cell-based; conditions: NCTC13476; Escherichia coli NCTC-13476, 50% NHS
[6] = tested on: Escherichia coli ATCC-BAA-2340; experiment: MIC (50% NHS); format: cell-based; conditions: ATCCBAA2340; Escherichia coli ATCC-BAA-2340, 50% NHS
[7] = tested on: Acinetobacter baumannii ATCC 17978; experiment: MIC (50% NHS); format: cell-based; conditions: ATCC17978; Acinetobacter baumannii ATCC 17978, 50% NHS
[8] = tested on: Enterobacter cloacae ATCC-222; experiment: MIC (50% NHS); format: cell-based; conditions: ATCC222; Enterobacter cloacae ATCC-222, 50% NHS
[9] = tested on: Enterococcus faecalis ATCC-29212; experiment: MIC (50% NHS); format: cell-based; conditions: ATCC29212; Enterococcus faecalis ATCC-29212, 50% NHS
[10] = tested on: Enterococcus faecium ATCC-700221; experiment: MIC (50% NHS); format: cell-based; conditions: ATCC700221; Enterococcus faecium ATCC-700221, 50% NHS
[11] = tested on: Staphylococcus aureus ATCC-29213; experiment: MIC (50% NHS); format: cell-based; conditions: ATCC29213; Staphylococcus aureus ATCC-29213, 50% NHS
[12] = tested on: Staphylococcus aureus NRS-384; experiment: MIC (50% NHS); format: cell-based; conditions: NRS384; Staphylococcus aureus NRS-384, 50% NHS
[13] = tested on: Staphylococcus aureus NRS-100; experiment: MIC (50% NHS); format: cell-based; conditions: NRS100; Staphylococcus aureus NRS-100, 50% NHS

SMILES	MIC [1] [µg/mL]	human CLint [2]	mouse CLint [3]	MIC [4] [µg/mL]	MIC [5] [µg/mL]	MIC [6] [µg/mL]	MIC [7] [µg/mL]	MIC [8] [µg/mL]	MIC [9] [µg/mL]	MIC [10] [µg/mL]	MIC [11] [µg/mL]	MIC [12] [µg/mL]	MIC [13] [µg/mL]
CN1CC2CN(C(=O)Nc3cc(F)cc(F)c3)CC(C1)C2(O)c1ccc(-c2ccc(CN)cc2C#N)cc1 [Compound 23, (1R,5S,9r)-9-(4′-(aminomethyl)-2′-cyano-[1,1′-biphenyl]-4-yl)-N-(3,5-difluorophenyl)-9-hydroxy-7-methyl-3,7-diazabicyclo[3.3.1]nonane-3-carboxamide]	2 (≈ 3.86 µM)	93	105	8 (≈ 15.5 µM)	2 (≈ 3.86 µM)	0.25 (≈ 0.483 µM)	64 (≈ 124 µM)	0.5 (≈ 0.966 µM)	0.5 (≈ 0.966 µM)	1 (≈ 1.93 µM)	0.13 (≈ 0.251 µM)	0.13 (≈ 0.251 µM)	0.13 (≈ 0.251 µM)
CN1CC2CN(C(=O)Nc3cc(F)cc(F)c3)CC(C1)C2(O)c1ccc(-c2ccc(CN)cc2C#N)cn1 [Compound 24, (1R,5S,9r)-9-(5-(4-(aminomethyl)-2-cyanophenyl)pyridin-2-yl)-N-(3,5-difluorophenyl)-9-hydroxy-7-methyl-3,7-diazabicyclo[3.3.1]nonane-3-carboxamide]	2 (≈ 3.86 µM)	144	>145	16 (≈ 30.9 µM)	4 (≈ 7.71 µM)	0.25 (≈ 0.482 µM)	64 (≈ 123 µM)	0.5 (≈ 0.964 µM)	1 (≈ 1.93 µM)	4 (≈ 7.71 µM)	0.25 (≈ 0.482 µM)	0.5 (≈ 0.964 µM)	0.25 (≈ 0.482 µM)
CNCc1ccc(-c2ccc(C3(O)C4CN(C)CC3CN(C(=O)Nc3cc(F)cc(F)c3)C4)nc2)c(C#N)c1 [Compound 17, (1R,5S,9r)-9-(5-(2-cyano-4-((methylamino)methyl)phenyl)pyridin-2-yl)-N-(3,5-difluorophenyl)-9-hydroxy-7-methyl-3,7-diazabicyclo[3.3.1]nonane-3-carboxamide]	4 (≈ 7.51 µM)	138	>145	7.12 (≈ 13.4 µM)	1.78 (≈ 3.34 µM)	0.22 (≈ 0.413 µM)	28.5 (≈ 53.5 µM)	0.45 (≈ 0.845 µM)	0.45 (≈ 0.845 µM)	0.89 (≈ 1.67 µM)	≤ 0.11	0.22 (≈ 0.413 µM)	0.22 (≈ 0.413 µM)
